Source: ChEMBL document CHEMBL1201862, “PubChem BioAssay data set” (2004)
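Exposure lasted 48 hours, with cells grown in 96-well plates and compounds tested at five concentrations. Here, GI50 denotes the concentration required for 50% inhibition of growth.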 Calls of active or inactive are those of the source. Rule as the data show it: active = GI50 up to about 1.1 µM and inactive = higher.

How the values were obtained:
Experiment in all cases: NCI tumour cell line growth inhibition, 48 h
786-0 = tested on: 786-0
A498 = tested on: A498
A549 = tested on: A549
ACHN = tested on: ACHN
BT-549 = tested on: BT-549
CAKI-1 = tested on: CAKI-1
COLO 205 = tested on: COLO 205
DU-145 = tested on: DU-145
EKVX = tested on: EKVX
HCT-116 = tested on: HCT-116
HCT-15 = tested on: HCT-15
HL-60 = tested on: HL-60
HOP-62 = tested on: HOP-62
HOP-92 = tested on: HOP-92
HT-29 = tested on: HT-29
Hs-578T = tested on: Hs-578T
IGROV-1 = tested on: IGROV-1
K562 = tested on: K562
KM12 = tested on: KM12
LOX IMVI = tested on: LOX IMVI
M14 = tested on: M14
MCF7 = tested on: MCF7
MDA-MB-231 = tested on: MDA-MB-231
MDA-MB-435 = tested on: MDA-MB-435
MDA-N = tested on: MDA-N
MOLT-4 = tested on: MOLT-4
Malme-3M = tested on: Malme-3M
NCI-H226 = tested on: NCI-H226
NCI-H23 = tested on: NCI-H23
NCI-H460 = tested on: NCI-H460
NCI-H522 = tested on: NCI-H522
NCI/ADR-RES = tested on: NCI/ADR-RES
OVCAR-3 = tested on: OVCAR-3
OVCAR-4 = tested on: OVCAR-4
OVCAR-5 = tested on: OVCAR-5
OVCAR-8 = tested on: OVCAR-8
PC-3 = tested on: PC-3
RPMI-8226 = tested on: RPMI-8226
RXF 393 = tested on: RXF 393
SF-268 = tested on: SF-268
SF-295 = tested on: SF-295
SF-539 = tested on: SF-539
SK-MEL-28 = tested on: SK-MEL-28
SK-MEL-2 = tested on: SK-MEL-2
SK-MEL-5 = tested on: SK-MEL-5
SK-OV-3 = tested on: SK-OV-3
SN12C = tested on: SN12C
SNB-19 = tested on: SNB-19
SNB-75 = tested on: SNB-75
SR = tested on: SR
SW-620 = tested on: SW-620
T47D = tested on: T47D
TK-10 = tested on: TK-10
U-251 = tested on: U-251
UACC-257 = tested on: UACC-257
UACC-62 = tested on: UACC-62
UO-31 = tested on: UO-31
CCRF-CEM = tested on: CCRF-CEM
HCC 2998 = tested on: HCC 2998

Measured: GI50

CN(Cc1cc(Cl)cc(Cl)c1O)Cc1c(O)ccc2ccccc12
inactive: 786-0 21 µM | A498 17.1 µM | A549 26 µM | ACHN 17.3 µM | BT-549 17 µM | CAKI-1 18.3 µM | COLO 205 16.9 µM | DU-145 22.3 µM | EKVX 20 µM | HCT-116 23.7 µM | HL-60 25.4 µM | HOP-62 18.1 µM | HOP-92 20.1 µM | HT-29 27.9 µM | Hs-578T 19.1 µM | IGROV-1 17.3 µM | K562 26 µM | KM12 19.9 µM | LOX IMVI 16.7 µM | M14 20.2 µM | MCF7 17.5 µM | MDA-MB-231 16.9 µM | MDA-MB-435 19.1 µM | MDA-N 24.9 µM | MOLT-4 20.9 µM | Malme-3M 14.9 µM | NCI-H226 20.6 µM | NCI-H23 18.4 µM | NCI-H460 18.4 µM | NCI-H522 15 µM | NCI/ADR-RES 20.6 µM | OVCAR-3 16.6 µM | OVCAR-4 17.1 µM | OVCAR-5 23.1 µM | OVCAR-8 19.5 µM | PC-3 16.6 µM | RPMI-8226 25 µM | RXF 393 13.5 µM | SF-268 13.6 µM | SF-295 17.2 µM | SF-539 20.9 µM | SK-MEL-28 19.1 µM | SK-MEL-2 19.3 µM | SK-MEL-5 17.5 µM | SK-OV-3 18.2 µM | SN12C 21.2 µM | SNB-19 19.8 µM | SNB-75 16.7 µM | SR 23.8 µM | SW-620 31.7 µM | T47D 19.2 µM | TK-10 17.1 µM | U-251 16.3 µM | UACC-257 18.2 µM | UACC-62 15.5 µM | UO-31 17.3 µM
17.6 µM: HCT-15

CCOP(=O)(OCC)C(NC(=O)C(C(F)(F)F)C(F)(F)F)c1ccccc1 (stereo not drawn)
> 100 µM: HCT-15
inactive: 786-0 > 100 µM | A549 > 100 µM | ACHN > 100 µM | BT-549 > 10 µM | CAKI-1 > 100 µM | CCRF-CEM 36.6 µM | COLO 205 > 100 µM | DU-145 > 100 µM | EKVX > 100 µM | HCC 2998 > 100 µM | HCT-116 > 100 µM | HL-60 24.6 µM | HOP-62 > 100 µM | HOP-92 > 100 µM | HT-29 > 100 µM | Hs-578T > 100 µM | IGROV-1 > 100 µM | K562 61.2 µM | KM12 > 100 µM | LOX IMVI > 100 µM | M14 > 100 µM | MCF7 97.9 µM | MDA-MB-231 > 100 µM | MDA-MB-435 > 100 µM | MDA-N > 100 µM | MOLT-4 67.3 µM | Malme-3M > 100 µM | NCI-H23 > 100 µM | NCI-H460 > 100 µM | NCI/ADR-RES > 100 µM | OVCAR-3 > 100 µM | OVCAR-4 > 100 µM | OVCAR-5 > 100 µM | OVCAR-8 > 100 µM | PC-3 > 100 µM | RPMI-8226 21.7 µM | RXF 393 > 100 µM | SF-268 > 100 µM | SF-295 > 100 µM | SF-539 > 100 µM | SK-MEL-28 > 100 µM | SK-MEL-2 > 100 µM | SK-MEL-5 > 100 µM | SK-OV-3 > 100 µM | SN12C > 100 µM | SNB-19 > 100 µM | SNB-75 > 100 µM | SR 59.6 µM | SW-620 > 100 µM | T47D 84.1 µM | TK-10 > 100 µM | U-251 > 100 µM | UACC-257 > 100 µM | UACC-62 > 100 µM | UO-31 49.9 µM
